Read-outs that look alike come from different tables or passages of the source.
Legend:
[1] = test system: SIV integrase A122T (SIV IN RTV pseudovirus); assay: organism not typed; assay type: cell-based
[2] = test system: SIV integrase G140R (SIV IN RTV pseudovirus); assay: organism not typed; assay type: cell-based; conditions: HEK293
HIV-1 = conditions: read-out: 50% inhibitory concentration (IC50); cited from earlier work
[3] = time course, day given in the Days column, CAB LA 50 mg/kg i.m. days 11, 39, 67, LLOQ 10 ng ml^-1
Experimental: (§1) CAB LA (200 mg/mL injectable stock aqueous suspension) was given at a dose of 50 mg kg^−1 under anesthesia by intramuscular injection into the quadriceps. Volumes greater than 1.0 mL were divided into two injection sites.

in vivo = conditions: Indian, rhesus monkey
Experimental: as §1

[4] = test system: SIV integrase I250V (SIV IN RTV pseudovirus); assay: organism not typed; assay type: cell-based
[5] = test system: SIV integrase WT (SIV IN RTV pseudovirus); assay: organism not typed; assay type: cell-based
[6] = test system: SIV integrase E92Q (SIV IN RTV pseudovirus); assay type: cell-based; conditions: E92Q SIV integrase mutant
[7] = ECLAIR trial; cited from earlier work
[8] = test system: SIV integrase I72T (SIV IN RTV pseudovirus); assay: organism not typed; assay type: cell-based
[9] = test system: SIV integrase I110V (SIV IN RTV pseudovirus); assay: organism not typed; assay type: cell-based
[10] = test system: SIV integrase Q124R (SIV IN RTV pseudovirus); assay: organism not typed; assay type: cell-based
[11] = for Median CAB: plasma, median of treated macaques
Experimental: as §1

## C[C@H]1CO[C@@H]2Cn3cc(C(=O)NCc4ccc(F)cc4F)c(=O)c(O)c3C(=O)N12 [CAB, cabotegravir]
[1]; HEK293
  EC50: 1.51 nM
[1]; {}
  fold-change relative to wild type integrase: 1.3 fold
[2]
  EC50: > 1000 nM
HIV-1
  IC50: ~0.22 nM
[3]; macaque 10D181
  Vaginal fluid CAB concentration in treated macaques: 0.009 µg/mL
[3]; macaque 33996
  Vaginal fluid CAB concentration in treated macaques: 0.009 µg/mL
In vivo
  half-life: 10.7 days
[4]; HEK293
  EC50: 1.04 nM
[4]; {}
  fold-change relative to wild type integrase: 0.9 fold
[5]; HEK293
  EC50: 1.19 nM
[5]; WT SIV integrase
  fold-change relative to wild type integrase: 1 fold
[6]
  fold-change relative to wild type integrase: 2.5 fold
[7]
  subjects with CAB still detectable 52 weeks after the last injection: 14%
[8]; HEK293
  EC50: 0.96 nM
[8]; {}
  fold-change relative to wild type integrase: 0.8 fold
[9]; HEK293
  EC50: 1.27 nM
[9]; {}
  fold-change relative to wild type integrase: 1.1 fold
[10]; HEK293
  EC50: 1.22 nM
[10]; {}
  fold-change relative to wild type integrase: 1.0 fold
[11]; four of the six animals
  time after which plasma CAB was below the limit of detection of the assay: 115 to 176 days
[11]; macaque 01D520, day 18
  Plasma CAB concentration: 11.2 µg/mL
[11]; macaque 01D520, day 25
  Plasma CAB concentration: 7.1 µg/mL
[11]; macaque 01D520, day 32
  Plasma CAB concentration: 2.24 µg/mL
[11]; macaque 01D520, day 39
  Plasma CAB concentration: 0.239 µg/mL
[11]; macaque 01D520, day 46
  Plasma CAB concentration: 6.87 µg/mL
[11]; macaque 01D520, day 53
  Plasma CAB concentration: 5.88 µg/mL
[11]; macaque 01D520, day 57
  Plasma CAB concentration: 4.57 µg/mL
[11]; macaque 01D520, day 67
  Plasma CAB concentration: 0.943 µg/mL
[11]; macaque 01D520, day 74
  Plasma CAB concentration: 6.2 µg/mL
[11]; macaque 01D520, day 81
  Plasma CAB concentration: 4.17 µg/mL
[11]; macaque 01D520, day 88
  Plasma CAB concentration: 2.42 µg/mL
[11]; macaque 01D520, day 95
  Plasma CAB concentration: 0.992 µg/mL
[11]; macaque 01D520, day 102
  Plasma CAB concentration: 0.432 µg/mL
[11]; macaque 01D520, day 106
  Plasma CAB concentration: 0.273 µg/mL
[11]; macaque 10D181, day 18
  Plasma CAB concentration: 3.2 µg/mL
[11]; macaque 10D181, day 25
  Plasma CAB concentration: 3.88 µg/mL
[11]; macaque 10D181, day 32
  Plasma CAB concentration: 2.79 µg/mL
[11]; macaque 10D181, day 39
  Plasma CAB concentration: 1.33 µg/mL
[11]; macaque 10D181, day 46
  Plasma CAB concentration: 3.45 µg/mL
[11]; macaque 10D181, day 53
  Plasma CAB concentration: 5.06 µg/mL
[11]; macaque 10D181, day 57
  Plasma CAB concentration: 3.47 µg/mL
[11]; macaque 10D181, day 67
  Plasma CAB concentration: 1.51 µg/mL
[11]; macaque 10D181, day 74
  Plasma CAB concentration: 2.76 µg/mL
[11]; macaque 10D181, day 81
  Plasma CAB concentration: 3.57 µg/mL
[11]; macaque 10D181, day 88
  Plasma CAB concentration: 2.78 µg/mL
[11]; macaque 10D181, day 95
  Plasma CAB concentration: 1.5 µg/mL
[11]; macaque 10D181, day 102
  Plasma CAB concentration: 0.454 µg/mL
[11]; macaque 10D181, day 106
  Plasma CAB concentration: 0.227 µg/mL
[11]; macaque 33996, day 18
  Plasma CAB concentration: 5.68 µg/mL
[11]; macaque 33996, day 25
  Plasma CAB concentration: 6.38 µg/mL
[11]; macaque 33996, day 32
  Plasma CAB concentration: 4.05 µg/mL
[11]; macaque 33996, day 39
  Plasma CAB concentration: 3.3 µg/mL
[11]; macaque 33996, day 46
  Plasma CAB concentration: 5.86 µg/mL
[11]; macaque 33996, day 53
  Plasma CAB concentration: 9.39 µg/mL
[11]; macaque 33996, day 57
  Plasma CAB concentration: 9.76 µg/mL
[11]; macaque 33996, day 67
  Plasma CAB concentration: 1.4 µg/mL
[11]; macaque 33996, day 74
  Plasma CAB concentration: 4.57 µg/mL
[11]; macaque 33996, day 81
  Plasma CAB concentration: 6.04 µg/mL
[11]; macaque 33996, day 88
  Plasma CAB concentration: 3.04 µg/mL
[11]; macaque 33996, day 95
  Plasma CAB concentration: 1.43 µg/mL
[11]; macaque 33996, day 102
  Plasma CAB concentration: 0.816 µg/mL
[11]; macaque 33996, day 106
  Plasma CAB concentration: 0.611 µg/mL
[11]; macaque 35451, day 18
  Plasma CAB concentration: 6.34 µg/mL
[11]; macaque 35451, day 25
  Plasma CAB concentration: 4.47 µg/mL
[11]; macaque 35451, day 32
  Plasma CAB concentration: 1.84 µg/mL
[11]; macaque 35451, day 39
  Plasma CAB concentration: 0.819 µg/mL
[11]; macaque 35451, day 46
  Plasma CAB concentration: 2.55 µg/mL
[11]; macaque 35451, day 53
  Plasma CAB concentration: 4.01 µg/mL
[11]; macaque 35451, day 57
  Plasma CAB concentration: 6.17 µg/mL
[11]; macaque 35451, day 67
  Plasma CAB concentration: 3.19 µg/mL
[11]; macaque 35451, day 74
  Plasma CAB concentration: 4.1 µg/mL
[11]; macaque 35451, day 81
  Plasma CAB concentration: 2.89 µg/mL
[11]; macaque 35451, day 88
  Plasma CAB concentration: 3.28 µg/mL
[11]; macaque 35451, day 95
  Plasma CAB concentration: 2.43 µg/mL
[11]; macaque 35451, day 102
  Plasma CAB concentration: 2.21 µg/mL
[11]; macaque 35451, day 106
  Plasma CAB concentration: 1.25 µg/mL
[11]; macaque CH54, day 18
  Plasma CAB concentration: 5.12 µg/mL
[11]; macaque CH54, day 25
  Plasma CAB concentration: 5.14 µg/mL
[11]; macaque CH54, day 32
  Plasma CAB concentration: 3.53 µg/mL
[11]; macaque CH54, day 39
  Plasma CAB concentration: 1.14 µg/mL
[11]; macaque CH54, day 46
  Plasma CAB concentration: 2.99 µg/mL
[11]; macaque CH54, day 53
  Plasma CAB concentration: 2.32 µg/mL
[11]; macaque CH54, day 57
  Plasma CAB concentration: 3.27 µg/mL
[11]; macaque CH54, day 67
  Plasma CAB concentration: 4.33 µg/mL
[11]; macaque CH54, day 74
  Plasma CAB concentration: 5.39 µg/mL
[11]; macaque CH54, day 81
  Plasma CAB concentration: 5.03 µg/mL
[11]; macaque CH54, day 88
  Plasma CAB concentration: 3.45 µg/mL
[11]; macaque CH54, day 95
  Plasma CAB concentration: 1.97 µg/mL
[11]; macaque CH54, day 102
  Plasma CAB concentration: 1.41 µg/mL
[11]; macaque CH54, day 106
  Plasma CAB concentration: 0.707 µg/mL
[11]; macaque CJ92, day 18
  Plasma CAB concentration: 6.99 µg/mL
[11]; macaque CJ92, day 25
  Plasma CAB concentration: 3.55 µg/mL
[11]; macaque CJ92, day 32
  Plasma CAB concentration: 3.13 µg/mL
[11]; macaque CJ92, day 39
  Plasma CAB concentration: 2.92 µg/mL
[11]; macaque CJ92, day 46
  Plasma CAB concentration: 3.62 µg/mL
[11]; macaque CJ92, day 53
  Plasma CAB concentration: 2.88 µg/mL
[11]; macaque CJ92, day 57
  Plasma CAB concentration: 3.47 µg/mL
[11]; macaque CJ92, day 67
  Plasma CAB concentration: 3.7 µg/mL
[11]; macaque CJ92, day 74
  Plasma CAB concentration: 5.46 µg/mL
[11]; macaque CJ92, day 81
  Plasma CAB concentration: 6.56 µg/mL
[11]; macaque CJ92, day 88
  Plasma CAB concentration: 4.022 µg/mL
[11]; macaque CJ92, day 95
  Plasma CAB concentration: 1.93 µg/mL
[11]; macaque CJ92, day 102
  Plasma CAB concentration: 1.54 µg/mL
[11]; macaque CJ92, day 106
  Plasma CAB concentration: 0.994 µg/mL
[11]; day 18
  Median CAB: 6.01 µg/mL
[11]; day 25
  Median CAB: 4.805 µg/mL
[11]; day 32
  Median CAB: 2.96 µg/mL
[11]; day 39
  Median CAB: 1.235 µg/mL
[11]; day 46
  Median CAB: 3.535 µg/mL
[11]; day 53
  Median CAB: 4.535 µg/mL
[11]; day 57
  Median CAB: 4.02 µg/mL
[11]; day 67
  Median CAB: 2.35 µg/mL
[11]; day 74
  Median CAB: 4.98 µg/mL
[11]; day 81
  Median CAB: 4.6 µg/mL
[11]; day 88
  Median CAB: 3.16 µg/mL
[11]; day 95
  Median CAB: 1.715 µg/mL
[11]; day 102
  Median CAB: 1.113 µg/mL
[11]; day 106
  Median CAB: 0.659 µg/mL
[11]; remaining two animals
  CAB in plasma at the last measurement on day 204: detectable
